Earlier results in publication PMC8198792, “Prediction of Anticancer Peptides with High Efficacy and Low Toxicity by Hybrid Model Based on 3D Structure of Peptides” (International Journal of Molecular Sciences, 2021).
Where two headings read alike, the source gives them in different places.

Columns and labels:
cancer cell lines = system: cancer cell lines; parameters: method as in 6 sources, ref CancerPPD [45] and SATPdb ||| ref CancerPPD/SATPdb ||| ref CancerPPD, SATPdb, Swissprot (PDB) ||| ref CancerPPD/SATPdb/Swissprot(PDB) ||| ref CancerPPD / SATPdb ||| ...; conditions: cited from earlier work
Description: Supplement ijms-22-05630-s001.zip/ACPs(seguence).xlsx, sheet "D1" | column: Activity || Supplement ijms-22-05630-s001.zip/ACPs(seguence).xlsx, sheet "D2" | column: Activity || Supplement ijms-22-05630-s001.zip/ACPs(seguence).xlsx, sheet "D3" | column: Activity || (+ 2 further places)

[1] = system: many types of cells, including non-cancer cells; conditions: cited from earlier work; for Activity: toxic peptides dataset TD2, class label 1 (toxic, positive set) or 0 (non-toxic AMP, negative set), ref SATPdb
[2] = ACPs dataset D3 (supplement sheet "D3"), 1 = ACP, 0 = non-ACP, ref CancerPPD [45] and SATPdb
[3] = ACPs dataset D4 (sheet "D4"), label 1 = ACP, 0 = non-ACP, ref CancerPPD / SATPdb
[4] = ACPs dataset D5, sheet "D5", label 1 = ACP, 0 = non-ACP, ref CancerPPD [45] and SATPdb
[5] = ACPs dataset D3 (sheet "D3"), label 1 = ACP, 0 = non-ACP, ref CancerPPD/SATPdb
[6] = ACPs dataset D1, 1 = ACP (positive), 0 = non-ACP (negative), label taken from databases, ref CancerPPD [45] and SATPdb
[7] = ACPs dataset D4 (sheet "D4"), label 1 = ACP (CancerPPD ID), 0 = non-ACP (non-anticancer AMP, SATPdb ID), ref CancerPPD [45] and SATPdb

Substance	Activity (cancer cell lines; [2])	Activity (cancer cell lines; [3])	Activity (cancer cell lines; [4])	Activity [1]	Activity (cancer cell lines; [5])	Activity (cancer cell lines; [6])	Activity (cancer cell lines; [7])	Activity (dataset TD1, toxic 1 / non-toxic 0) ([1]; natural toxic peptide dataset TD1, label collected from database, ref SATPdb [34])
KWKVFKKIEKMGRNIRNGIVKAGPAIAVLGEAKAILS [satpdb11163]	0	0	0	0				
GMASKAGSVLGKVAKVALKAAL [satpdb13618]		0	0	0	0			
FLPFLAKILTGVL [satpdb14646]		0	0	0	0			
FLPIAGKLLSGLSGLL [satpdb12964]		0	0	0	0			
GRLQAFLAKMKEIAAQTL [satpdb13649]		0	0	0	0			
GFGSVLGKALKFGANLL [satpdb10971]	0	0	0	0				
GLADFLNKAVGKVVDFVKS [satpdb10833]	0	0	0	0				
AIGSILGALAKGLPTLISWIKNR [satpdb14614]		0	0	1	0			
RWKIFKKIEKVGRNVRDGIIKAGPAVAVVGQAATVVK [satpdb12319]		0	0	0	0			
WRSLGRTLLRLSHALKPLARRSGW [satpdb10596]	0	0	0	0				
FFPIVGKLLFGLSGLL [satpdb12681]		0	0	0	0			
GLFGILGSVAKHVLPHVIPVVAEHL [satpdb11946]		0	0	0	0			
GFLGSLLKTGLKVGSNLL [satpdb10293]				1		0	0	
GLLGTLGNLLNGLGL [satpdb12279]		0	0	0	0			
ACNFQSCWATCQAQHSIYFRRAFCDRSQCKCVFVRG [satpdb14312]		0	0	0	0			
FLPILINLIHKGLL [satpdb14138]		0	0	0	0			
VOLFPWFNQY [satpdb12517]		0	0	0	0			
VGKVLKQLKKVSAVAKVAMKKGAALLK [satpdb11069]	0	0	0	1				
VIPIVSGLLSSLL [satpdb12918]		0	0	0	0			
FIGAILPAIAGLVGGLINR [satpdb12061]		0	0	1	0			
FLPFLKSILGKIL [satpdb13847]		0	0	0	0			
LSPNLLKSLL [satpdb13883]		0	0	0	0			
VIPFVASVAAEMMQHVYCAASKKC [satpdb10043, toxic peptide, datasets TD1 and TD3]						0	0	1

Substance	Activity (cancer cell lines; [2])	Activity (cancer cell lines; [3])	Activity (cancer cell lines; [4])	Activity [1]	Activity (cancer cell lines; [5])	Activity (cancer cell lines; [6])	Activity (cancer cell lines; [7])	Activity (dataset TD1, toxic 1 / non-toxic 0) ([1]; natural toxic peptide dataset TD1, label collected from database, ref SATPdb [34])
FLPLLVGAISSILPKIF [satpdb12883]		0	0	1	0			
VKLfPVKLfP [satpdb12197]		0	0	1	0			
HFLGTLVNLAKKIL [satpdb13929]		0	0	1	0			
FLSLIPHAINAVSALANHG [satpdb14661]		0	0	0	0			
ILPFLAGLFSKIL [satpdb10916]	0	0	0	0				
ILPLVGNLLNDLL [satpdb10023]	0	0	0	0				
GVLSAFKNALPGIMKIIV [satpdb14593]		0	0	0	0			
LRPAILVRIK [satpdb13588]		0	0	0	0			
RGGRLCYCRRRFCICV [satpdb14720]		0	0	0	0			
FLGLLPSIVSGAVSLVKKL [satpdb10320]	0	0	0	0				
GIGGALLSVGKLALKGLANVLADKFAN [satpdb14012]		0	0	1	0			
FLPLVGKILSGLI [satpdb11230]	0	0	0	0				
FLSLIPHAINAVSAIAKHS [satpdb10076]	0	0	0	0				
RADTQTYQPYNKDWIKEKIYVLLRRQAQQAGK [satpdb14189]		0	0	0	0			
ILGPVLGLVGNALGGLIKKL [satpdb12428]		0	0	1	0			
VOLFPFFNQY [satpdb13046]		0	0	0	0			
ILQKAVLDCLKAAGSSLSKAAITAIYNKIT [satpdb12333]		0	0	0	0			
GLWSKIKDVAAAAGKAALGAVNEAL [satpdb12483]		0	0	0	0			
VOLFPWWNQY [satpdb13995]		0	0	0	0			
AILTTLANWARKFL [satpdb12672]		0	0	0	0			
FLWGLIPGAISAVTSLIKK [satpdb12159]		0	0	0	0			
GKVLDKFGKIVGKVLKQLKKVSAVAKV [satpdb11239]	0	0	0	1				
KCNTATCATQRLANFLVHSSNNFGAILSSTNVGSNTY [satpdb11357]	0	0	0	0				
